Read-outs that look alike come from different tables or passages of the source.
Tests used:
PDE5 = PDE5 (Homo sapiens, UniProt O76074); assay: Kinetic assay (Lineweaver–Burk) on PDE5; assay type: biochemical; design: Vmax / Kcat: unit of the concentration uncertain;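 on Kcat: pure compound doses in mM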
Experimental: (§1) Lineweaver–Burk plots were employed to analyze the inhibition of the target enzyme. These plots were represented as 1/velocity (1/V) versus 1/substrate concentration (1/[S]) in the presence or absence of each sample (non-treated (black circle), 10 μg or 1 mM (orange circle), 20 μg or 2 mM (silver circle), 50 μg or 5 mM (yellow circle), and 100 μg or 10 mM (blue circle)) as an inhibitor against PDE5.
(§2) These reactions were conducted in a total volume of 80 μL. by a previously described method. The Michaelis–Menten constant (Km) and maximal velocity (Vmax) were calculated using the x and y intercepts, respectively. […] Additionally, the Kik and Kiv inhibition constants were calculated using previously described methods.

APN [1] = target: T1, APN (Homo sapiens, UniProt P15144); assay: Kinetic assay (Lineweaver–Burk) on APN; assay type: biochemical; conditions: for Ki: APN
T1 construct: purchased Sigma-Aldrich
T1 sequence (P15144 whole entry, species assumed): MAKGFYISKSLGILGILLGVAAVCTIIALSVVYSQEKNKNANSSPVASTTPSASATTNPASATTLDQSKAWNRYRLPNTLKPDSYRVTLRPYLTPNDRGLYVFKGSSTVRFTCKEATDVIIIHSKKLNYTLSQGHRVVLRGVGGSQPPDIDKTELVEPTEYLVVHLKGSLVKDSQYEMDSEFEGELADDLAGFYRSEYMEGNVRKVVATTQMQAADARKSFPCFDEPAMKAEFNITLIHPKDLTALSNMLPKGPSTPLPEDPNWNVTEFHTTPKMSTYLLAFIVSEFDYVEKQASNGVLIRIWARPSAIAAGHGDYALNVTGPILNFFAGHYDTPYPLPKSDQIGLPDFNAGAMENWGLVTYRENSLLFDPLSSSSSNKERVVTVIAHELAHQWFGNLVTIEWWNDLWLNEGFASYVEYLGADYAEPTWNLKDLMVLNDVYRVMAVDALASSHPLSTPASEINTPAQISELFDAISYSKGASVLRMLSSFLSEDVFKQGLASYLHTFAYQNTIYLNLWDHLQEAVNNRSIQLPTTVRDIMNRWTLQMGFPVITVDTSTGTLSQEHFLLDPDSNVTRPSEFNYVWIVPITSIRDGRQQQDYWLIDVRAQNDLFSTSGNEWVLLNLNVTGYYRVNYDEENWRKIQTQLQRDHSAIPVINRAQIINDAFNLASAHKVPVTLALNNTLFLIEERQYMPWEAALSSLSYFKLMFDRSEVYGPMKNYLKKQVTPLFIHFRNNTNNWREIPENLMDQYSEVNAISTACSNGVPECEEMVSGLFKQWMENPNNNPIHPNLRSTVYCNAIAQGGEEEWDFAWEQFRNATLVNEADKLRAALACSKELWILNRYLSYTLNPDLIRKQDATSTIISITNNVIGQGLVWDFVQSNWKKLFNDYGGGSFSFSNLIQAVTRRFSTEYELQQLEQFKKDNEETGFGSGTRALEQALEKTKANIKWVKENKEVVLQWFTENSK
Experimental: as §1, with “(1/(S))” for “(1/[S])”, “(blue” for “(orange”, “(green” for “(silver”, “(orange” for “(yellow”, “(purple” for “(blue”, “APN.” for “PDE5.”
as §2

aminopeptidase N (APN) = target: T2, aminopeptidase N (APN) (Homo sapiens, UniProt P15144); assay: Aminopeptidase N (APN) enzyme activity assay with L-p-NA substrate; assay type: biochemical
T2 construct: purchased Sigma-Aldrich
T2 sequence (P15144 whole entry, species assumed): as above
Experimental: Figure 2 Effects of AAE and AAE-derived compounds on APN activity. […] The reaction was started by adding 20 μL enzyme solution (1 mU) and incubated for 60 min at 37 °C. The absorbance of samples were measured at 405 nm to determine the formation of p-nitroaniline. Each value is the mean ± SD of triplicate measurements. * p < 0.05 and ** p < 0.01, compared to each control group (Con). Con, control group treated enzyme only.
The activity of APN was determined according to Melzig et al.. Briefly, the enzyme substrate L-p-NA (2 mM) was dissolved in 50 mM N-(2-hydroxyethyl)piperazine-N’-2ethansulfonic acid (HEPES) buffer (pH 7.4) containing 154 mM NaCl. […] The reaction was started by adding 20 μL enzyme solution (approximately 1 mU in HEPES-buffer) and incubated for 60 min at 37 °C. The samples were measured spectrophotometrically at 405 nm to determine the formation of p-nitroanilmne. APN inhibitory activity (%) = ([Absorbance control without sample − Absorbance control with sample]/Absorbance control without sample) × 100

APN [2] = target: T1, APN; design: method as in doi:10.1101/2021.02.26.433103; conditions: interacts with ALA474, ASP473, and SER476; cited from earlier work
[3] = PDE5 treated with compound 1 (unit uncertain)
[4] = PDE5 treated with compound 2 (unit uncertain)
[5] = PDE5 treated with compound 5 (unit uncertain)
[6] = PDE5 treated with compound 10 (unit uncertain)
[7] = APN treated with compound 10 mM

O=c1c(O)c(-c2ccc(O)c(O)c2)oc2cc(O)cc(O)c12 [QUE, quercetin]
Kik/Kiv (PDE5; PDE5, ratio according to Yang et al. [27]): 9.4
Kcat (PDE5; [3]): 5473 ± 234 k s^−1
Vmax (PDE5; [3]): 0.724 ± 0.031 mU/min
Kcat (PDE5; [4]): 5187 ± 166 k s^−1
Vmax (PDE5; [4]): 0.686 ± 0.022 mU/min
Kcat (PDE5; [5]): 2893 ± 60 k s^−1
Vmax (PDE5; [5]): 0.383 ± 0.008 mU/min
Kcat (PDE5; [6]): 1478 ± 38 k s^−1
Vmax (PDE5; [6]): 0.195 ± 0.005 mU/min
inhibition type against PDE5 (PDE5; from changes of Km and 1/Vmax (Lineweaver–Burk), putative decision system [27]): uncompetitive-type
Km value of PDE5, fold of non-treated (PDE5; highest concentration): 0.69 fold
Vmax value of PDE5, fold of non-treated group (PDE5; highest concentration, non-treated 1.039 mU/min = 1.0-fold): 0.19 fold
Kcat (APN [1]; APN treated with compound 1 mM): 368.1 ± 6.2 s⁻¹
Vmax (APN [1]; APN treated with compound 1 mM): 0.297 ± 0.005 mU/min
Kcat (APN [1]; APN treated with compound 2 mM): 316.6 ± 7.4 s⁻¹
Vmax (APN [1]; APN treated with compound 2 mM): 0.255 ± 0.006 mU/min
Kcat (APN [1]; APN treated with compound 5 mM): 244.1 ± 3.7 s⁻¹
Vmax (APN [1]; APN treated with compound 5 mM): 0.197 ± 0.003 mU/min
Kcat (APN [1]; [7]): 212.3 ± 2.5 s⁻¹
Vmax (APN [1]; [7]): 0.171 ± 0.002 mU/min
Ki (APN [1]; calculated by method of ref 27, read-out: Kiv): 11.8 mM
Ki (APN [1]; read-out: Ki): 13.2 mM
inhibition type against APN (APN [1]; from Kik/Kiv ratio, new decision system [27]): noncompetitive-type
Vmax value of APN, fold of non-treated group (APN [1]; highest concentration, non-treated 0.316 mU/min = 1.0-fold): 0.54 fold
IC50 (aminopeptidase N (APN)): > 10 mM
inhibition of APN in in vitro enzyme assay (aminopeptidase N (APN); at the highest concentration): 33%
enzymatic activity of APN (aminopeptidase N (APN); treatment with 10 mM, without sample 0.38 U): 0.25 ± 0.01 U
interaction energy with APN (docking) (APN [2]): -6.9 kcal/mol
